Results reported in PubChem BioAssay (NCI).
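A five-concentration, 48-hour dose response in 96-well plates underlies each endpoint, interpolated linearly between surrounding concentrations. GI50 = concentration required for 50% inhibition of growth. TGI marks complete inhibition of growth.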

Legend:
Test in all cases: DTP human tumour cell line panel, 48 h
[1] = test system: SW-620 colon
[2] = test system: LOX IMVI melanoma
[3] = test system: HT29 colon
[4] = test system: 786-0 renal
[5] = test system: HCC-2998 colon
[6] = test system: A549 NSCLC
[7] = test system: SK-MEL-2 melanoma
[8] = test system: TK-10 renal
[9] = test system: A498 renal
[10] = test system: ACHN renal

| SMILES | GI50 [1] [µM] | TGI [1] [µM] | GI50 [2] [µM] | TGI [2] [µM] | GI50 [3] [µM] | TGI [3] [µM] | GI50 [4] [µM] | TGI [4] [µM] | GI50 [5] [µM] | TGI [5] [µM] | GI50 [6] [µM] | TGI [6] [µM] | GI50 [7] [µM] | TGI [7] [µM] | GI50 [8] [µM] | TGI [8] [µM] | GI50 [9] [µM] | TGI [9] [µM] | GI50 [10] [µM] | TGI [10] [µM] |
| --- | --- | --- | --- | --- | --- | --- | --- | --- | --- | --- | --- | --- | --- | --- | --- | --- | --- | --- | --- | --- |
| Cn1cc(-c2ccc(-c3cn(C)c4ccc(Cl)cc34)s2)c2cc(Cl)ccc21 | > 100 | > 100 | > 100 | > 100 | > 100 | > 100 | > 100 | > 100 | > 100 | > 100 | > 100 | > 100 | > 100 | > 100 | > 100 | > 100 | > 100 | > 100 | > 100 | > 100 |
| Nc1ccc(-c2ccc(N)cc2I)c(I)c1 | 19.4 | 81.7 | 16.3 | 31.2 | 20 | 42.8 | 17.3 | 36.9 | 19.1 | 42.2 | 29.9 | > 100 | 15.9 | 37.4 | 22.8 | 80.7 | 10.7 | 24.1 | 22.6 | 89.6 |
| CC(C)N1C(NNC(=O)c2cnccn2)=NS(=O)(=O)c2ccccc21 | > 100 | > 100 | > 100 | > 100 | > 100 | > 100 | > 100 | > 100 | > 100 | > 100 | > 100 | > 100 | > 100 | > 100 | > 100 | > 100 | > 100 | > 100 | > 100 | > 100 |
| FC(F)(F)c1ccc(-c2cnc(Cl)nc2NCc2cc(C(F)(F)F)cc(C(F)(F)F)c2)cc1 | 3.14 | > 100 | 2.74 | > 100 | 3.26 | > 100 | 3.67 | > 100 | 3.82 | > 100 | 2.81 | > 100 | 2.35 | 5.28 | 3.16 | > 100 | 1.97 | 6.87 | 3.28 | > 100 |
| COc1cc(C2CC(c3ccc(N(C)C)cc3)=NN2C(C)=O)cc(OC)c1OC (stereo unspecified) | 0.928 | > 100 | 2.28 | > 100 | 0.909 | > 39.5 | 2.36 | > 78 | 2.61 | 27.1 | 3.36 | > 100 | 12.9 | > 100 | 14.3 | > 100 | 2.18 | > 47.4 | 3.57 | > 100 |
| CCCOC(=O)CCn1c(SC)nc2[nH]cc(-c3ccccc3)c2c1=O | 28.3 | > 100 | 10.9 | 30.9 | 15.5 | 61.6 | 2.71 | > 100 | 73.5 | > 100 | 15.8 | 65.8 | 25.5 | 63.5 | 47.3 | > 100 | 27.9 | 87.9 | 22.2 | 77.2 |
| C=C1CCC2C3(C)COC(c4ccccc4Br)OC3CCC2(C)C1C/C=C1/C(=O)OCC1OC(C)=O (stereo unspecified) | 0.402 | 1.3 | 0.422 | 0.826 | 0.804 | 2.37 | 1.63 | 2.98 | 1.73 | 3.31 | 2.06 | 5.26 | 1.72 | 3.4 | 1.91 | 3.67 | 1.6 | 3.91 | 1.6 | 2.96 |
| c1ccc(P(CCP(CCP(c2ccccc2)c2ccccc2)c2ccccc2)CCP(c2ccccc2)c2ccccc2)cc1 (stereo unspecified) | – | > 10 | – | 2.84 | – | > 10 | – | 3.21 | – | 4.52 | – | > 10 | – | > 10 | – | > 10 | – | > 10 | > 10 | > 10 |
| CCCCN(CCCC)c1ccc(C(=NC(C)CCCN(CC)CC)c2ccc(N(C)C)cc2)cc1 (stereo unspecified) | 0.793 | 1.68 | 0.775 | 1.46 | 0.58 | 1.58 | 0.705 | 1.43 | 0.922 | 1.77 | 1.01 | 2.57 | 0.814 | 1.81 | 1.34 | 3.99 | 0.789 | 2.39 | 0.935 | 1.89 |
| O=C(CN(/C=C/C(=O)C(F)(F)F)c1ccccc1)c1ccc(Cl)c(Cl)c1 | 14.6 | 30.1 | 16 | 31.8 | 34.1 | > 100 | 17.6 | 37.5 | 15.8 | 29.9 | 13.4 | 29.8 | 12.4 | 26.6 | 15.9 | 32.8 | 14.2 | 27.4 | 14.7 | 27.9 |
| O=C(CCc1cc(-c2ccccc2)nc(=S)[nH]1)Nc1ccccc1[N+](=O)[O-] | – | > 100 | – | > 100 | – | > 100 | – | > 100 | – | > 100 | – | > 100 | – | > 100 | – | > 100 | – | > 100 | – | > 100 |
| O=C(CCCSc1nc(-c2ccccc2)cc(-c2ccc(Cl)cc2)n1)NO | 1.66 | 13 | 0.414 | 1.87 | 2.47 | 13.2 | 1.47 | 13.3 | 3.03 | 13.2 | 2.31 | 12.4 | 4.39 | 18.5 | 0.773 | 12.3 | 1.7 | 4.7 | 0.399 | 4.38 |
| O=C(c1cccnc1)c1cc(-c2ccccn2)c(=O)n2ccccc12 | > 100 | > 100 | > 100 | > 100 | > 100 | > 100 | > 100 | > 100 | > 100 | > 100 | > 100 | > 100 | > 100 | > 100 | > 100 | > 100 | > 100 | > 100 | > 100 | > 100 |
